According to patent US7446201B2, “Substituted heteroaryl benzofuran acids” (Wyeth, priority 2003, dated 2008):
Where a name gives a salt, the structure may show the parent alone.

Key:
human PAI-1 = human PAI-1 (Homo sapiens, UniProt P05121); test: Assay for Determining IC50 of Inhibition of PAI-1 (Antibody Assay); type: binding; conditions: footnote a: determined by the Antibody Assay
Protocol: This assay is based upon the non-SDS dissociable interaction between tPA and active PAI-1. Assay plates are initially coated with human tPA (10 μg/ml). Test compounds are dissolved in DMSO at 10 mM, then diluted with physiologic buffer (pH 7.5) to a final concentration of 1-50 μM. Test compounds are incubated with human PAI-1 (50 ng/ml) for 15 minutes at room temperature. The tPA-coated plate is washed with a solution of 0.05% Tween 20 and 0.1% BSA, then the plate is blocked with a solution of 3% BSA. An aliquot of the test compound/PAI-1 solution is then added to the tPA-coated plate, incubated at room temperature for 1 hour, and washed. Active PAI-1 bound to the plate is assessed by adding an aliquot of a 1:1000 dilution of the 33B8 monoclonal antibody against human PAI-1, and incubating the plate at room temperature for 1 hour (Molecular Innovations, Royal Oak, Mich.). […] The plate is incubated 45 minutes at room temperature, and color development is determined at OD405 nm. The quantitation of active PAI-1 bound to tPA at varying concentrations of test compound is used to determine the IC50. Results are analyzed using a logarithmic best-fit equation. The assay sensitivity is 5 ng/ml of human PAI-1 as determined from a standard curve ranging from 0-100 ng/ml.

[1] = target: T1, recombinant human plasminogen activator inhibitor-1 (PAI-1) (Homo sapiens, UniProt P05121); test: Primary Screen for the PAI-1 Inhibition; type: biochemical; conditions: for IC50: footnote b: determined by a modification of the Primary Screen for PAI-1 Inhibition; for inhibition at 25 µM: 25 μM test compound
T1 construct: purchased Molecular Innovations, Royal Oak, Mich
Protocol: Test compounds are dissolved in DMSO at a final concentration of 10 mM, then diluted 100× in physiologic buffer. The inhibitory assay is initiated by the addition of the test compound (1-100 μM final concentration, maximum DMSO concentration of 0.2%) in a pH 6.6 buffer containing 140 nM recombinant human plasminogen activator inhibitor-1 (PAI-1; Molecular Innovations, Royal Oak, Mich.). Following a 1 hour incubation at room temperature, 70 nM of recombinant human tissue plasminogen activator (tPA) is added, and the combination of the test compound, PAI-1 and tPA is incubated for an additional 30 minutes. Following the second incubation, Spectrozyme-tPA (American Diagnostica, Greenwich, Conn.), a chromogenic substrate for tPA, is added and absorbance read at 405 nm at 0 and 60 minutes. Relative PAI-1 inhibition is equal to the residual tPA activity in the presence of the test compound and PAI-1. Control treatments include the complete inhibition of tPA by PAI-1 at the molar ratio employed (2:1), and the absence of any effect of the test compound on tPA alone.

T1 sequence (P05121 24-402): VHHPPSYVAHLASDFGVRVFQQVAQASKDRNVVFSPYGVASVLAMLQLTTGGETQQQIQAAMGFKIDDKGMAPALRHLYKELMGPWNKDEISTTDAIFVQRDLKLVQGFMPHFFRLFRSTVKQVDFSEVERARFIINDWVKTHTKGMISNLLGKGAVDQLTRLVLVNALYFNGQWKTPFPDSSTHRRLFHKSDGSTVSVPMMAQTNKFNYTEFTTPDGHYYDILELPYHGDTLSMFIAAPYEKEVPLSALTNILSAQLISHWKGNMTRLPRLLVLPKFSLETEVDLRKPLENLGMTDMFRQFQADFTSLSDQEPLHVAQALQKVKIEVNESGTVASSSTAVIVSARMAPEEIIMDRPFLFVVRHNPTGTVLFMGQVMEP
Chain of human PAI-1 (P05121 24-402): as above

SMILES | melting point | also measured
c1ccc2oc(-c3ccc(OCc4nnn[nH]4)c4ncccc34)cc2c1 (as salt: salt) [Compound 3, 5-(1-Benzofuran-2-yl)-8-(1H-tetraazol-5-ylmethoxy)quinoline] | > 240 °C (dec.) | –
CCCCCc1c(-c2ccc3nc(C(F)(F)F)cc(OCc4nnn[nH]4)c3c2)oc2ccccc12 [Compound 2, 6-(3-Pentyl-1-benzofuran-2-yl)-4-(1H-tetraazol-5-ylmethoxy)-2-(trifluoromethyl)-quinoline] | 207 to 209 °C (dec.) | IC50 (human PAI-1): 21.5 µM
CCCCCc1c(-c2ccc(OCc3nnn[nH]3)c3ncccc23)oc2ccccc12 [Compound 5, 5-(3-Pentyl-1-benzofuran-2-yl)-8-(1H-tetraazol-5-ylmethoxy)quinoline] | – | IC50 [1]: 8.1 µM
c1ccc2oc(-c3ccc(OCc4nnn[nH]4)c4ncccc34)cc2c1 [Compound 3, 5-(1-Benzofuran-2-yl)-8-(1H-tetraazol-5-ylmethoxy)quinoline] | – | inhibition at 25 µM [1]: 20%
c1ccc(-c2c(-c3ccc(OCc4nnn[nH]4)c4ncccc34)oc3ccccc23)cc1 (as salt: salt) [Compound 4, 5-(3-Phenyl-1-benzofuran-2-yl)-8-quinolinyl 1H-tetraazol-5-ylmethyl ether] | > 273 °C (dec.) | –
FC(F)(F)c1cc(OCc2nnn[nH]2)c2cc(-c3cc4ccccc4o3)ccc2n1 [Compound 1, 6-(1-Benzofuran-2-yl)-2-(trifluoromethyl)quinolin-4-yl 1H-tetraazol-5-ylmethyl ether] | > 225 °C (dec.) | IC50 [1]: 38.6 µM
CCCCCc1c(-c2ccc(OCc3nnn[nH]3)c3ncccc23)oc2ccccc12 (as salt: salt) [Compound 5, 5-(3-Pentyl-1-benzofuran-2-yl)-8-(1H-tetraazol-5-ylmethoxy)quinoline] | 226 to 228 °C (dec.) | –
c1ccc(-c2c(-c3ccc(OCc4nnn[nH]4)c4ncccc34)oc3ccccc23)cc1 [Compound 4, 5-(3-Phenyl-1-benzofuran-2-yl)-8-quinolinyl 1H-tetraazol-5-ylmethyl ether] | – | inhibition at 25 µM [1]: 55%
